Test [1] has as its target DNMT1 (Homo sapiens, UniProt P26358). The experiment in a line: DNMT1 biochemical activity, breaklight assay and/or SPA assay.
The test system of test [2] is erythroid progenitor cells (EPCs). Put plainly: Fetal hemoglobin (HbF) ELISA in day 7 erythroid progenitor cells. It counts as cell-based, human. Conditions: Homo sapiens, Erythroid progenitor cell, HbF ELISA, day 7 EPCs, 5 days; read-out: EPC ELISA (pEC50 category) (converted). The method, boiled down: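 HbF induction was read by anti-HbF sandwich ELISA (HRP/TMB, OD450) on lysates and normalized to vehicle-treated cells. Cells were day 7 erythroid progenitors derived from human bone marrow CD34+ cells, seeded at 1,000/well with 3 U/mL rhEPO. Compound was given for 5 days at 37 °C at final concentrations […].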

[3] abbreviates: binned activity in either the breaklight or the SPA assay.
[4] abbreviates: binned activity in either the breaklight or the SPA assay, read-out: DNMT1 BioChemical (pIC50 category) (converted).

“And” between values parts separate entries of the source, which are not always exact repeats. Equal values may be shown once. Where a name gives a salt, the structure may show the parent alone. Read-outs that look alike come from different tables or passages of the source.

Chain of DNMT1 (P26358 whole entry, looked up): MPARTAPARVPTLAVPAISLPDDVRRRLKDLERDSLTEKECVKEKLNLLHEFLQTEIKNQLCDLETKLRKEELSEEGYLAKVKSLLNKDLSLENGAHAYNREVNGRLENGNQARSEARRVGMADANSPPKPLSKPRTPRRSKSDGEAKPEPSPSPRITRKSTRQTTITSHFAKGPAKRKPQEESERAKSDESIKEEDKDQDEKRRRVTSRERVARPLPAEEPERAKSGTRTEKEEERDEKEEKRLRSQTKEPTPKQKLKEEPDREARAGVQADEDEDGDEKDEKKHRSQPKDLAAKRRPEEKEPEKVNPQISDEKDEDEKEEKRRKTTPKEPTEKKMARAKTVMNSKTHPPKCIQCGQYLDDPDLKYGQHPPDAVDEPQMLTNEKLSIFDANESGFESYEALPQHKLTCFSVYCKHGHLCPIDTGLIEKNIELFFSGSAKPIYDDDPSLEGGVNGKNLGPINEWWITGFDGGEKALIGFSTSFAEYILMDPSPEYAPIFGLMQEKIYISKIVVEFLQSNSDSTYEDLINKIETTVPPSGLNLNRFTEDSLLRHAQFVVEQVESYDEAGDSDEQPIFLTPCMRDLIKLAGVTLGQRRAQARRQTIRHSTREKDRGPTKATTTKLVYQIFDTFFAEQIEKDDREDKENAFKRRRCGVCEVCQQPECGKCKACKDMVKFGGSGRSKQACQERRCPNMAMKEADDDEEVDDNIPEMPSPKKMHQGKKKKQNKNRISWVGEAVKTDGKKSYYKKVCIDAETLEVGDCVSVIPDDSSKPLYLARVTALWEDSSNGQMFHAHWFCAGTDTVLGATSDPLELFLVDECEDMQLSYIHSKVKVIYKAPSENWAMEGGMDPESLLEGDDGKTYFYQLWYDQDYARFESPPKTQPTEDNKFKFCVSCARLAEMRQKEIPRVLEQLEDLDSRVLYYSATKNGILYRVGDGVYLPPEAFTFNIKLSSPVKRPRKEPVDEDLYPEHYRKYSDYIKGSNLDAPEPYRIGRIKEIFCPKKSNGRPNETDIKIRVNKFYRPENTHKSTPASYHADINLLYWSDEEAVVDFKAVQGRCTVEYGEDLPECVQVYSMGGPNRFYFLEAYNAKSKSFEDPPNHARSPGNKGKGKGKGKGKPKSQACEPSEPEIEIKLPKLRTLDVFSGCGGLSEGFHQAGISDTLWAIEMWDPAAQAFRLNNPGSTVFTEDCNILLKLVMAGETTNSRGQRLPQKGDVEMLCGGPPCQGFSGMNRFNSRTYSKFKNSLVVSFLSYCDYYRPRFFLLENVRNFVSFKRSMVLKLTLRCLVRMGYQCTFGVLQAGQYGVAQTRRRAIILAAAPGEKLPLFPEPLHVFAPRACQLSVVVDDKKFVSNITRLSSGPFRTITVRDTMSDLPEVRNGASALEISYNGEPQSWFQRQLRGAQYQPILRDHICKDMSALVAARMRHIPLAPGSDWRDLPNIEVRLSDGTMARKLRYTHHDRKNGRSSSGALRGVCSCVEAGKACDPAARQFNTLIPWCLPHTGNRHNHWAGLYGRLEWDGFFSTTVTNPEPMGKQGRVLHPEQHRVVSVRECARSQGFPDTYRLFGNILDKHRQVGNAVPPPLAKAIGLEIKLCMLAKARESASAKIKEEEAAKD

`CCOc1c(C#N)c(SC(C(N)=O)c2ccccc2)nc(N2CCCN(CCO)CC2)c1C#N` (centres unmarked) [Example 193]: the “DNMT1 BioChemical (pIC50 category)” value in test [1] (setting [3]) was “D (Category D: ≥6.5)”. Besides, the EC50 in test [2] was 0.316 to 1 µM.

Consider `CCc1c(C#N)c(SC(C(N)=O)c2ccccc2)nc(N2CCN(Cc3cn[nH]c3)CC2)c1C#N` (centres unmarked) [Example 187, 2-((6-(4-((1H-Pyrazol-4-yl)methyl)piperazin-1-yl)-3,5-dicyano-4-ethylpyridin-2-yl)thio)-2-phenylacetamide], for which, in test [1] (setting [4]), the IC50 is 0.316 to 1 µM. Also, in test [2], the EC50 was 1 to 31.6 µM.

With `CCc1c(C#N)c(N[C@@H](C(N)=O)c2ccccc2)nc(N2CCCN(CC)CC2)c1C#N` [Example 162, (R)-2-((3,5-Dicyano-4-ethyl-6-(4-ethyl-1,4-diazepan-1-yl)pyridin-2-yl)amino)-2-phenylacetamide], the IC50 in test [1] (setting [4]) was 1 to 31.6 µM. In addition, the EC50 in test [2] is 1 to 31.6 µM.

With `CCc1c(C#N)c(SC(C(N)=O)c2ccccc2)nc(N(C)CC(=O)N2CC[C@H](CO)C2)c1C#N` (stereo partly drawn) [Example 648, 2-((3,5-dicyano-4-ethyl-6-((2-((S)-3-(hydroxymethyl)pyrrolidin-1-yl)-2-oxoethyl)(methyl)amino)pyridin-2-yl)thio)-2-phenylacetamide], the “DNMT1 BioChemical (pIC50 category)” value in test [1] (setting [3]) is reported as “D (Category D: ≥6.5)”. Further, the EC50 in test [2] was < 0.316 µM.

Regarding `CN(C)C1CCN(c2nc(SC(C(N)=O)c3ccccc3)c(C#N)c(C3CC3)c2C#N)CC1` (centres unmarked) [Example 29, 2-((3,5-dicyano-4-cyclopropyl-6-(4-(dimethylamino)piperidin-1-yl)pyridin-2-yl)thio)-2-phenylacetamide], the “DNMT1 BioChemical (pIC50 category)” value in test [1] (setting [3]) is on record as “D (Category D: ≥6.5)”. For the same compound, in test [2], the EC50 was < 0.316 µM.

In the case of `CCc1c(C#N)c(SC(C(N)=O)c2ccc(F)cc2F)nc(N2CCC(N(C)C)CC2)c1C#N` (centres unmarked) [Example 210, 2-((3,5-Dicyano-6-(4-(dimethylamino)piperidin-1-yl)-4-ethylpyridin-2-yl)thio)-2-(2,4-difluorophenyl)acetamide], the “DNMT1 BioChemical (pIC50 category)” value in test [1] (setting [3]) is recorded as “D (Category D: ≥6.5)”. Besides, in test [2], the EC50 was < 0.316 µM.

Take `CCc1c(C#N)c(SC(C(N)=O)c2ccccc2)nc(N2CCC(N(C)CC(C)(C)OC)CC2)c1C#N` (centres unmarked) [Example 492, 2-((3,5-dicyano-4-ethyl-6-(4-((2-methoxy-2-methylpropyl)(methyl)amino)piperidin-1-yl)pyridin-2-yl)thio)-2-phenylacetamide]: in test [1] (setting [3]), the “DNMT1 BioChemical (pIC50 category)” value is “D (Category D: ≥6.5)”. In addition, in test [2], the EC50 is < 0.316 µM.

On to `CCc1c(C#N)c(S[C@@H](C(N)=O)c2ccc(F)cc2F)nc(N2CC[C@H](O)C2)c1C#N` [Example 674, (R)-2-((3,5-dicyano-4-ethyl-6-((S)-3-hydroxypyrrolidin-1-yl)pyridin-2-yl)thio)-2-(2,4-difluorophenyl)acetamide], for which the “DNMT1 BioChemical (pIC50 category)” value in test [1] (setting [3]) is given as “D (Category D: ≥6.5)”. For the same compound, in test [2], the EC50 was 1 to 31.6 µM.

For `CCc1c(C#N)c(SC(C(N)=O)c2ccc(F)cn2)nc(N(C)C)c1C#N` (centres unmarked) [Example 199], the “DNMT1 BioChemical (pIC50 category)” value in test [1] (setting [3]) is reported as “D (Category D: ≥6.5)”. Further, the EC50 in test [2] was > 31.6 µM.

For `CCc1c(C#N)c(SCc2ccc(-c3ccccn3)cc2)nc(N2CCC(N3CCCC3)CC2)c1C#N` [Example 350, 4-Ethyl-2-((4-(pyridin-2-yl)benzyl)thio)-6-(4-(pyrrolidin-1-yl)piperidin-1-yl)pyridine-3,5-dicarbonitrile], the IC50 in test [1] (setting [4]) is 0.316 to 1 µM. The EC50 in test [2] was > 31.6 µM.

With `CCc1c(C#N)c(SC(C(N)=O)c2ccccc2)nc(N2CCN(N)CC2)c1C#N` (centres unmarked) [Example 234, 2-((6-(4-Aminopiperazin-1-yl)-3,5-dicyano-4-ethylpyridin-2-yl)thio)-2-phenylacetamide, Trifluoroacetic Acid Salt], in test [1] (setting [4]), the IC50 was 0.316 to 1 µM. Besides, the EC50 in test [2] was 1 to 31.6 µM.

In the case of `CCc1c(C#N)c(SC(C(N)=O)c2ccccc2)nc(N2CCc3ccncc3C2)c1C#N` (centres unmarked) [Example 178, 2-((3,5-Dicyano-6-(3,4-dihydro-2,7-naphthyridin-2 (1H)-yl)-4-ethylpyridin-2-yl)thio)-2-phenylacetamide], the “DNMT1 BioChemical (pIC50 category)” value in test [1] (setting [3]) is “D (Category D: ≥6.5)”. Further, the EC50 in test [2] is 1 to 31.6 µM.

`CN1CCCN(c2nc(SC(C(N)=O)c3ccccc3)c(C#N)c(-c3ccco3)c2C#N)CC1` (centres unmarked) [Example 135, 2-((3,5-dicyano-4-(furan-2-yl)-6-(4-methyl-1,4-diazepan-1-yl)pyridin-2-yl)thio)-2-phenylacetamide]: the IC50 in test [1] (setting [4]) is 0.316 to 1 µM. The EC50 in test [2] is 1 to 31.6 µM.

As for `CCc1c(C#N)c(SC(C(N)=O)c2ccccc2)nc(N2CCC(N3CCC(F)(F)C3)CC2)c1C#N` (centres unmarked) [Example 496, 2-((3,5-dicyano-6-(4-(3,3-difluoropyrrolidin-1-yl)piperidin-1-yl)-4-ethylpyridin-2-yl)thio)-2-phenylacetamide], the IC50 in test [1] (setting [4]) was 0.316 to 1 µM; in test [1] (breaklight assay and/or SPA assay, repeated experimental runs, read-out: average pIC50 against DNMT1 (converted)), 0.316 to 1 µM and 0.398 µM. Further, the EC50 in test [2] was < 0.316 µM.

As to `CCc1c(C#N)c(SC(C(N)=O)c2ccccc2)nc(N2CCCN(C)CC2)c1C#N` (single isomer, unassigned; isomer 1) [Example 254, 2-((3,5-dicyano-4-ethyl-6-(4-methyl-1,4-diazepan-1-yl)pyridin-2-yl)thio)-2-phenylacetamide (Isomer 1)], the IC50 in test [1] (setting [4]) is < 0.316 µM. Moreover, the EC50 in test [2] was 0.316 to 1 µM.

Consider `CCc1c(C#N)c(SC(C(N)=O)c2ccccc2)nc(N2CCC(OCCN)CC2)c1C#N` (centres unmarked) [Example 149, 2-((6-(4-(2-Aminoethoxy)piperidin-1-yl)-3,5-dicyano-4-ethylpyridin-2-yl)thio)-2-phenylacetamide, Trifluoroacetic Acid Salt], for which the “DNMT1 BioChemical (pIC50 category)” value in test [1] (setting [3]) is “D (Category D: ≥6.5)”. In addition, the “average pIC50 against DNMT1” value in test [1] (breaklight assay and/or SPA assay, repeated experimental runs) is on record as > 6.5. The EC50 in test [2] is < 0.316 µM.

For the compound `CCc1c(C#N)c(SC(C(N)=O)c2ccc(F)cc2)nc(N2CCC(N)CC2)c1C#N` (centres unmarked) [Example 522, 2-((6-(4-aminopiperidin-1-yl)-3,5-dicyano-4-ethylpyridin-2-yl)thio)-2-(4-fluorophenyl)acetamide hydrochloride], the “DNMT1 BioChemical (pIC50 category)” value in test [1] (setting [3]) was “D (Category D: ≥6.5)”. In addition, the EC50 in test [2] was < 0.316 µM.

As for `CCC(=O)NCc1ccc(CSc2nc(N3CCCN(C)CC3)c(C#N)c(CC)c2C#N)cc1` [Example 87, N-(4-(((3,5-Dicyano-4-ethyl-6-(4-methyl-1,4-diazepan-1-yl)pyridin-2-yl)thio)methyl)benzyl)propionamide], the “DNMT1 BioChemical (pIC50 category)” value in test [1] (setting [3]) is “D (Category D: ≥6.5)”. For the same compound, the EC50 in test [2] is 0.316 to 1 µM.

For `CCc1c(C#N)c(SC(C(N)=O)c2ccccc2)nc(N2CCC(NCC3(C)COC3)CC2)c1C#N` (centres unmarked) [Example 449, 2-((3,5-dicyano-4-ethyl-6-(4-(((3-methyloxetan-3-yl)methyl)amino)piperidin-1-yl)pyridin-2-yl)thio)-2-phenylacetamide], in test [1] (setting [3]), the “DNMT1 BioChemical (pIC50 category)” value is “D (Category D: ≥6.5)”. The EC50 in test [2] is < 0.316 µM.

Consider `CCc1c(C#N)c(S[C@@H](C(N)=O)c2ccccc2)nc(N(C)CCO)c1C#N` (single isomer, unassigned) [Example 431], for which the “DNMT1 BioChemical (pIC50 category)” value in test [1] (setting [3]) is “D (Category D: ≥6.5)”. The EC50 in test [2] is < 0.316 µM.

For the compound `CCc1c(C#N)c(SC(C(N)=O)c2ccccc2)nc(N2CC(OC)C2)c1C#N` (centres unmarked) [Example 54, 2-((3,5-Dicyano-4-ethyl-6-(3-methoxyazetidin-1-yl)pyridin-2-yl)thio)-2-phenylacetamide], in test [1] (setting [4]), the IC50 was 0.316 to 1 µM. Moreover, the EC50 in test [2] was 1 to 31.6 µM.

Values taken from US10975056B2 (GlaxoSmithKline Intellectual Property Development Limited, priority 2016, dated 2021).
